# Test results: PubChem BioAssay (NCI)
#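 Interpolation was linear, between the two tested concentrations surrounding the appropriate level; five concentrations were tested over 48 hours in 96-well plates. Abbreviation: GI50, concentration required for 50% inhibition of growth. The concentration for full growth arrest is given as TGI.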
# Tests used:
# Assay in all cases: NCI anticancer screen, dose series, 48 h
# SN12C renal = system: SN12C renal
# SF-539 CNS = system: SF-539 CNS
# SR leukemia = system: SR leukemia
# MDA-MB-435 = system: MDA-MB-435
# OVCAR-4 ovarian = system: OVCAR-4 ovarian
# NCI-H226 lung = system: NCI-H226 lung
# LOX IMVI melanoma = system: LOX IMVI melanoma
# NCI/ADR-RES ovarian = system: NCI/ADR-RES ovarian
# SK-MEL-2 melanoma = system: SK-MEL-2 melanoma
# MALME-3M melanoma = system: MALME-3M melanoma
# SW-620 colon = system: SW-620 colon
# MOLT-4 leukemia = system: MOLT-4 leukemia
# HCC-2998 colon = system: HCC-2998 colon
# MCF7 breast = system: MCF7 breast
# DU-145 prostate = system: DU-145 prostate
# TK-10 renal = system: TK-10 renal
# OVCAR-5 ovarian = system: OVCAR-5 ovarian
# A498 renal = system: A498 renal
# MDA-MB-231 breast = system: MDA-MB-231 breast
# 786-0 renal = system: 786-0 renal
# UACC-257 melanoma = system: UACC-257 melanoma
# HL-60(TB) leukemia = system: HL-60(TB) leukemia
# EKVX NSCLC = system: EKVX NSCLC
# RXF 393 renal = system: RXF 393 renal
# M14 melanoma = system: M14 melanoma
# SK-MEL-28 melanoma = system: SK-MEL-28 melanoma
# HOP-62 NSCLC = system: HOP-62 NSCLC
# OVCAR-8 ovarian = system: OVCAR-8 ovarian
# IGROV1 ovarian = system: IGROV1 ovarian
# OVCAR-3 ovarian = system: OVCAR-3 ovarian
# UO-31 renal = system: UO-31 renal
# HCT-116 colon = system: HCT-116 colon
# SNB-75 CNS = system: SNB-75 CNS
# CCRF-CEM leukemia = system: CCRF-CEM leukemia
# RPMI-8226 leukemia = system: RPMI-8226 leukemia
# SK-MEL-5 melanoma = system: SK-MEL-5 melanoma
# HOP-92 NSCLC = system: HOP-92 NSCLC
# UACC-62 melanoma = system: UACC-62 melanoma
# SNB-19 CNS = system: SNB-19 CNS
# HCT-15 colon = system: HCT-15 colon
# NCI-H23 lung = system: NCI-H23 lung
# COLO 205 colon = system: COLO 205 colon
# SK-OV-3 ovarian = system: SK-OV-3 ovarian
# A549 NSCLC = system: A549 NSCLC
# BT-549 breast = system: BT-549 breast
# PC-3 prostate = system: PC-3 prostate
# NCI-H522 lung = system: NCI-H522 lung
# CAKI-1 renal = system: CAKI-1 renal
# K-562 leukemia = system: K-562 leukemia
# SF-268 CNS = system: SF-268 CNS
# HT29 colon = system: HT29 colon
# KM12 colon = system: KM12 colon
# SF-295 CNS = system: SF-295 CNS
# T-47D breast = system: T-47D breast
# U251 CNS = system: U251 CNS
# ACHN renal = system: ACHN renal
# NCI-H460 lung = system: NCI-H460 lung
# HS 578T breast = system: HS 578T breast
smiles,measurement,setting,value
CCCCN=C(N)c1ccc(N2CCCN(c3ccc(C(N)=NCCCC)cc3)CC2)cc1,GI50,SN12C renal,16.6 µM
same,TGI,SN12C renal,> 100 µM
same,GI50,SF-539 CNS,7.34 µM
same,TGI,SF-539 CNS,> 50.1 µM
same,GI50,SR leukemia,1.36 µM
same,TGI,SR leukemia,4.44 µM
same,GI50,MDA-MB-435,14.8 µM
same,TGI,MDA-MB-435,> 96.6 µM
same,GI50,OVCAR-4 ovarian,83.1 µM
same,TGI,OVCAR-4 ovarian,> 100 µM
same,GI50,NCI-H226 lung,1.66 µM
same,TGI,NCI-H226 lung,99.8 µM
same,GI50,LOX IMVI melanoma,22.5 µM
same,TGI,LOX IMVI melanoma,> 67.6 µM
same,GI50,NCI/ADR-RES ovarian,> 100 µM
same,TGI,NCI/ADR-RES ovarian,> 100 µM
same,GI50,SK-MEL-2 melanoma,12.3 µM
same,TGI,SK-MEL-2 melanoma,44.6 µM
same,GI50,MALME-3M melanoma,1 µM
same,TGI,MALME-3M melanoma,26.2 µM
same,GI50,SW-620 colon,13.6 µM
same,TGI,SW-620 colon,> 100 µM
same,GI50,MOLT-4 leukemia,25.2 µM
same,TGI,MOLT-4 leukemia,> 100 µM
same,GI50,HCC-2998 colon,8.88 µM
same,TGI,HCC-2998 colon,58.2 µM
same,GI50,MCF7 breast,7.44 µM
same,TGI,MCF7 breast,> 100 µM
same,GI50,DU-145 prostate,25.1 µM
same,TGI,DU-145 prostate,> 100 µM
same,GI50,TK-10 renal,11.4 µM
same,TGI,TK-10 renal,> 84.7 µM
same,GI50,OVCAR-5 ovarian,45.7 µM
same,TGI,OVCAR-5 ovarian,> 100 µM
same,GI50,A498 renal,0.529 µM
same,TGI,A498 renal,30.3 µM
same,GI50,MDA-MB-231 breast,27.7 µM
same,TGI,MDA-MB-231 breast,> 100 µM
same,GI50,786-0 renal,> 74.6 µM
same,TGI,786-0 renal,> 100 µM
same,GI50,UACC-257 melanoma,10 µM
same,TGI,UACC-257 melanoma,66.8 µM
same,TGI,HL-60(TB) leukemia,0.159 µM
same,GI50,EKVX NSCLC,10.6 µM
same,TGI,EKVX NSCLC,> 100 µM
same,TGI,RXF 393 renal,> 68.3 µM
same,GI50,M14 melanoma,43.1 µM
same,TGI,M14 melanoma,> 100 µM
same,GI50,SK-MEL-28 melanoma,31.2 µM
same,TGI,SK-MEL-28 melanoma,> 100 µM
same,GI50,HOP-62 NSCLC,15.8 µM
same,TGI,HOP-62 NSCLC,> 90.1 µM
same,GI50,OVCAR-8 ovarian,14.1 µM
same,TGI,OVCAR-8 ovarian,> 100 µM
same,GI50,IGROV1 ovarian,24.5 µM
same,TGI,IGROV1 ovarian,> 85.9 µM
same,GI50,OVCAR-3 ovarian,8.73 µM
same,TGI,OVCAR-3 ovarian,> 81.7 µM
same,GI50,UO-31 renal,> 66.1 µM
same,TGI,UO-31 renal,> 100 µM
same,GI50,HCT-116 colon,21 µM
same,TGI,HCT-116 colon,> 100 µM
same,GI50,SNB-75 CNS,6.29 µM
same,TGI,SNB-75 CNS,> 100 µM
same,GI50,CCRF-CEM leukemia,16.3 µM
same,TGI,CCRF-CEM leukemia,> 100 µM
same,GI50,RPMI-8226 leukemia,5.37 µM
same,TGI,RPMI-8226 leukemia,> 59.8 µM
same,GI50,SK-MEL-5 melanoma,5.04 µM
same,TGI,SK-MEL-5 melanoma,21.7 µM
same,GI50,HOP-92 NSCLC,14.6 µM
same,TGI,HOP-92 NSCLC,> 84 µM
same,GI50,UACC-62 melanoma,7.58 µM
same,TGI,UACC-62 melanoma,27.5 µM
same,GI50,SNB-19 CNS,> 21.4 µM
same,TGI,SNB-19 CNS,> 100 µM
same,GI50,HCT-15 colon,> 100 µM
same,TGI,HCT-15 colon,> 100 µM
same,GI50,NCI-H23 lung,5.67 µM
same,TGI,NCI-H23 lung,> 100 µM
same,GI50,COLO 205 colon,6.82 µM
same,TGI,COLO 205 colon,> 100 µM
same,GI50,SK-OV-3 ovarian,> 100 µM
same,TGI,SK-OV-3 ovarian,> 100 µM
same,GI50,A549 NSCLC,4.07 µM
same,TGI,A549 NSCLC,> 100 µM
same,GI50,BT-549 breast,14.4 µM
same,TGI,BT-549 breast,> 58.3 µM
same,GI50,PC-3 prostate,11.5 µM
same,TGI,PC-3 prostate,> 100 µM
same,GI50,NCI-H522 lung,11.8 µM
same,TGI,NCI-H522 lung,> 100 µM
same,GI50,CAKI-1 renal,> 72.3 µM
same,TGI,CAKI-1 renal,> 100 µM
same,GI50,K-562 leukemia,3.69 µM
same,TGI,K-562 leukemia,> 100 µM
same,GI50,SF-268 CNS,8.53 µM
same,TGI,SF-268 CNS,> 100 µM
same,GI50,HT29 colon,10.7 µM
same,TGI,HT29 colon,> 59.7 µM
same,GI50,KM12 colon,5.72 µM
same,TGI,KM12 colon,47.8 µM
same,GI50,SF-295 CNS,6.39 µM
same,TGI,SF-295 CNS,57.6 µM
same,GI50,T-47D breast,10.9 µM
same,TGI,T-47D breast,> 100 µM
same,GI50,U251 CNS,4.81 µM
same,TGI,U251 CNS,> 100 µM
same,GI50,ACHN renal,> 21.9 µM
same,TGI,ACHN renal,> 100 µM
same,GI50,NCI-H460 lung,4.15 µM
same,TGI,NCI-H460 lung,97.6 µM
same,GI50,HS 578T breast,5.02 µM
same,TGI,HS 578T breast,> 90.7 µM
